US20250340551A1, “SMALL MOLECULE MODULATORS OF STAT6” (Gilead Sciences, Inc., priority 2024, published 2025)

Experiments:
[1] = test system: Eotaxin-3 (CCL26) release in human whole blood stimulated with IL-4; assay: Human whole blood eotaxin-3 assay (IL-4 stimulated, Eotaxin-3 release); type: cell-based; conditions: Homo sapiens; for EC50: Hec50, 48 h; for Emax: 48 h
Procedure, shortened: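 Lithium-heparin blood preincubated 2 h at 37° C with 4-fold compound dilutions (0.5% DMSO, triplicates), then stimulated with 400 pM recombinant human IL-4 for 48 h. Eotaxin-3 in plasma supernatant measured by MSD immunoassay.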

human STAT6 = human STAT6 (Homo sapiens (Human), UniProt P42226); assay: Surface plasmon resonance assay (Biacore 8K, binding to immobilized STAT6); conditions: human STAT6 aa122-658, N-terminal His-tag, CM5 chip, 25° C.; geometric mean; read-out: STAT6 SPR Kd
Procedure, shortened: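 Run at 25° C with His-tagged STAT6 aa122-658 (insect-cell expressed) amine-coupled to a CM5 chip, reference-subtracted, in PBS-P+ with 2% DMSO. Multi-cycle kinetics: 60 sec. contact, up to 300 sec. dissociation. Affinity fitted from late report-point binding isotherms, with Rmax both free and fixed to theoretical 1:1.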

Sequence of human STAT6 (P42226 122-658): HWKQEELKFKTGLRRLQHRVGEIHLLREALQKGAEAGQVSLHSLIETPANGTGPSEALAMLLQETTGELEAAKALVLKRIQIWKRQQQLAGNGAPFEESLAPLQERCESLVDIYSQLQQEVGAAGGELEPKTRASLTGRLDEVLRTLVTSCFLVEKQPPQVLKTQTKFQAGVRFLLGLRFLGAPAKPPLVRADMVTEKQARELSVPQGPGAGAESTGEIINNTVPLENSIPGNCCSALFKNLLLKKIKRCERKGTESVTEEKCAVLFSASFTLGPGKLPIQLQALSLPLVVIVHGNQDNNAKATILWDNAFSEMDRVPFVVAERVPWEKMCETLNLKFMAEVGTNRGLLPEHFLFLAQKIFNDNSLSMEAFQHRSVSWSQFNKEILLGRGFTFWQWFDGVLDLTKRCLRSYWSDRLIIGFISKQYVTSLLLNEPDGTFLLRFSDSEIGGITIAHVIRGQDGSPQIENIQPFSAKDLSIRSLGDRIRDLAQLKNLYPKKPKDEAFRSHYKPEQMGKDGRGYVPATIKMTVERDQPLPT

SMILES	EC50 [1]	Kd (human STAT6)	Emax [1]
CN(C)C(=O)c1ccc(C2CCN(Cc3cc4c(-c5cnc(N)nc5)ccnc4n3C)CC2)cc1 [Example 1k13, 4-[1-[[4-(2-Aminopyrimidin-5-yl)-1-methyl-pyrrolo[2,3-b]pyridin-2-yl]methyl]-4-piperidyl]-N,N-dimethyl-benzamide]	14200 nM	87.7 nM	
CN(C)C(=O)c1ccc(C2CCN(Cc3cc4c(-c5cnc(N)c(F)c5)ccnc4n3C)CC2)cc1 [Example 1k14, 4-[1-[[4-(6-Amino-5-fluoro-3-pyridyl)-1-methyl-pyrrolo[2,3-b]pyridin-2-yl]methyl]-4-piperidyl]-N,N-dimethyl-benzamide]		37.2 nM	65.6%
CN(C)C(=O)c1ccc(C2CCN(Cc3cc4c(-c5ccc(N)nc5C#N)ccnc4n3C)CC2)cc1 [Example 1k43, 4-[1-[[4-(6-Amino-2-cyano-3-pyridyl)-1-methyl-pyrrolo[2,3-b]pyridin-2-yl]methyl]-4-piperidyl]-N,N-dimethyl-benzamide]	871 nM	31.4 nM	
CNc1cc(C)c(-c2ccnc3c2cc(CN2CCC(c4ccc(C(=O)N(C)C)cc4)CC2)n3C)cn1 [Example 1k51, N,N-Dimethyl-4-[1-[[1-methyl-4-[4-methyl-6-(methylamino)-3-pyridyl]pyrrolo[2,3-b]pyridin-2-yl]methyl]-4-piperidyl]benzamide]		80.5 nM	43%
CNc1ccc(-c2ccnc3c2cc(CN2CCC(c4ccc(C(=O)N(C)C)cc4)CC2)n3C)nc1 [Example 1k69, N,N-Dimethyl-4-(1-((1-methyl-4-(5-(methylamino)pyridin-2-yl)-1H-pyrrolo[2,3-b]pyridin-2-yl)methyl)piperidin-4-yl)benzamide]		53.5 nM	72%
Cc1nc(-c2ccnc3c2cc(CN2CCC(c4ccc(C(=O)N(C)C)cc4)CC2)n3C)ccc1N [Example 1k73, 4-[1-[[4-(5-Amino-6-methyl-2-pyridyl)-1-methyl-pyrrolo[2,3-b]pyridin-2-yl]methyl]-4-piperidyl]-N,N-dimethyl-benzamide]	7610 nM	50.3 nM	
CNc1ccc(-c2ccnc3c2cc(CN2CCC(c4ccc(C(=O)N(C)C)cc4F)CC2)n3C)nc1 [Example 1o23, 3-Fluoro-N,N-dimethyl-4-[1-[[1-methyl-4-[5-(methylamino)-2-pyridyl]pyrrolo[2,3-b]pyridin-2-yl]methyl]-4-piperidyl]benzamide]	2460 nM	30.6 nM	
CNc1ccc(-c2ccnc3c2cc([C@H](C)N2CCC(c4ccc(C(=O)N(C)C)cc4)CC2)n3C)nc1 [Example 1o24, (S)—N,N-dimethyl-4-(1-(1-(1-methyl-4-(5-(methylamino)pyridin-2-yl)-1H-pyrrolo[2,3-b]pyridin-2-yl)ethyl)piperidin-4-yl)benzamide]	444 nM	31.2 nM	
CNc1ccc(-c2ccnc3c2cc(CN2CC[C@@H](c4ccc(C(=O)N(C)C)cc4)C[C@H]2C)n3C)nc1 [Example 1o26, N,N-dimethyl-4-((2R,4R)-2-methyl-1-((1-methyl-4-(5-(methylamino)-pyridin-2-yl)-1H-pyrrolo[2,3-b]pyridin-2-yl)methyl)piperidin-4-yl)benzamide]	458 nM	32.4 nM	
CNc1ccc(-c2ccnc3c2cc(CN2CCN(c4ccc(C(=O)N(C)C)cc4)CC2)n3C)nn1 [Example 1p1, N,N-Dimethyl-4-[4-[[1-methyl-4-[6-(methylamino)pyridazin-3-yl]pyrrolo[2,3-b]pyridin-2-yl]methyl]piperazin-1-yl]benzamide]	76000 nM	329 nM	
CNc1ccc(-c2ccnc3c2cc(CN2CCC(c4ccc(C(=O)N(C)C)cc4C)CC2)n3C)nn1 [Example 1p2, N,N,3-Trimethyl-4-[1-[[1-methyl-4-[6-(methylamino)pyridazin-3-yl]pyrrolo[2,3-b]pyridin-2-yl]methyl]-4-piperidyl]benzamide]	14100 nM	70.1 nM	
CC(=O)Nc1ccc(-c2ccnc3c2cc(CN2CC[C@@H](c4ccc(C(=O)N(C)C)cc4)[C@@H](F)C2)n3C)cc1 [Example 1r6, N,N-dimethyl-4-[(3R,4S)-1-[[4-(4-acetamidophenyl)-1-methyl-pyrrolo[2,3-b]pyridin-2-yl]methyl]-3-fluoro-4-piperidyl]benzamide]		39.9 nM	51.2%
CNc1ccc(-c2ccnc3c2cc(CN2CCC(c4ccc(C(=O)N(C)C)cc4)CC2=O)n3C)cn1 (stereo not drawn) [Example 1s2, N,N-Dimethyl-4-[1-[[1-methyl-4-[6-(methylamino)-3-pyridyl]pyrrolo[2,3-b]pyridin-2-yl]methyl]-2-oxo-4-piperidyl]benzamide]		35.8 nM	54.4%
CNc1ccc(-c2ccnc3c2cc(CN2CC=C(c4ccc(C(=O)N(C)C)cc4C)CC2)n3C)cn1 [Example 1s8, N,N,3-Trimethyl-4-[1-[[1-methyl-4-[6-(methylamino)-3-pyridyl]pyrrolo[2,3-b]pyridin-2-yl]methyl]-3,6-dihydro-2H-pyridin-4-yl]benzamide]	958 nM	33.8 nM	
CNc1ccc(-c2ccnc3c2cc(CN2CC=C(c4c(C)cc(C(=O)N(C)C)cc4C)CC2)n3C)cn1 [Example 1s10, N,N,3,5-Tetramethyl-4-[1-[[1-methyl-4-[6-(methylamino)-3-pyridyl]pyrrolo[2,3-b]pyridin-2-yl]methyl]-3,6-dihydro-2H-pyridin-4-yl]benzamide]	205 nM	40.4 nM	
CNc1ccc(-c2ccnc3c2cc(CN2CC=C(c4ncc(C(=O)N(C)C)cc4C)CC2)n3C)cn1 [Example 1s12, N,N,5-Trimethyl-6-[1-[[1-methyl-4-[6-(methylamino)-3-pyridyl]pyrrolo[2,3-b]pyridin-2-yl]methyl]-3,6-dihydro-2H-pyridin-4-yl]pyridine-3-carboxamide]	4960 nM	32.1 nM	

Further lines, with some results ahead:

EC50 [1]	Kd (human STAT6)	SMILES	Emax [1]
6000 nM	11.4 nM	CN(C)C(=O)c1ccc(C2CCN(Cc3cc4c(-c5ccc(N)nc5)ccnc4n3C)CC2)cc1 [Example 1k3, 4-[1-[[4-(6-Amino-3-pyridyl)-1-methyl-pyrrolo[2,3-b]pyridin-2-yl]methyl]-4-piperidyl]-N,N-dimethyl-benzamide]	
	9.05 nM	CN(C)C(=O)c1ccc(C2CCN(Cc3cc4c(-c5ccc(N)c(C(=O)O)c5)ccnc4n3C)CC2)cc1 [Example 1k6, 2-Amino-5-[2-[[4-[4-(dimethylcarbamoyl)phenyl]-1-piperidyl]methyl]-1-methyl-pyrrolo[2,3-b]pyridin-4-yl]benzoic acid]	57%
6590 nM	30.5 nM	Cc1cc(-c2ccnc3c2cc(CN2CCC(c4ccc(C(=O)N(C)C)cc4)CC2)n3C)cnc1N [Example 1k11, 4-[1-[[4-(6-Amino-5-methyl-3-pyridyl)-1-methyl-pyrrolo[2,3-b]pyridin-2-yl]methyl]-4-piperidyl]-N,N-dimethyl-benzamide]	
1490 nM	22.3 nM	COc1nc(N)ccc1-c1ccnc2c1cc(CN1CCC(c3ccc(C(=O)N(C)C)cc3)CC1)n2C [Example 1k22, 4-[1-[[4-(6-Amino-2-methoxy-3-pyridyl)-1-methyl-pyrrolo[2,3-b]pyridin-2-yl]methyl]-4-piperidyl]-N,N-dimethyl-benzamide]	
6620 nM	18.8 nM	CN(C)C(=O)c1ccc(C2CCN(Cc3cc4c(-c5ccc(N)cn5)ccnc4n3C)CC2)cc1 [Example 1k66, 4-(1-((4-(5-Aminopyridin-2-yl)-1-methyl-1H-pyrrolo[2,3-b]pyridin-2-yl)methyl)piperidin-4-yl)-N,N-dimethylbenzamide]	
	22.6 nM	CNc1ccc(-c2ccnc3c2cc(CN2CCC(c4ccc(C(=O)N(C)C)cc4)CC2)n3C)nn1 [Example 1k71, N,N-Dimethyl-4-[1-[[1-methyl-4-[6-(methylamino)pyridazin-3-yl]pyrrolo[2,3-b]pyridin-2-yl]methyl]-4-piperidyl]benzamide]	78.8%
232 nM	19.2 nM	CNc1ccc(-c2ccnc3c2cc(CN2CCN(c4ccc(C(=O)N(C)C)cc4C)CC2)n3C)nn1 [Example 1p3, N,N,3-Trimethyl-4-[4-[[1-methyl-4-[6-(methylamino)pyridazin-3-yl]pyrrolo[2,3-b]pyridin-2-yl]methyl]piperazin-1-yl]benzamide]	
723 nM	22 nM	CNc1ccc(-c2ccnc3c2cc(CN2CC=C(c4ccc(C(=O)N(C)C)cc4C)CC2)n3C)nn1 [Example 1p6, N,N,3-Trimethyl-4-[1-[[1-methyl-4-[6-(methylamino)pyridazin-3-yl]pyrrolo[2,3-b]pyridin-2-yl]methyl]-3,6-dihydro-2H-pyridin-4-yl]benzamide]	
480 nM	28.8 nM	CNc1ccc(-c2ccnc3c2cc(CN2CCC(c4c(C)cc(C(=O)N(C)C)cc4C)CC2)n3C)cn1 [Example 1s13, N,N,3,5-Tetramethyl-4-[1-[[1-methyl-4-[6-(methylamino)-3-pyridyl]pyrrolo[2,3-b]pyridin-2-yl]methyl]-4-piperidyl]benzamide]	
	28.9 nM	CNc1ccc(-c2ccnc3c2cc(CN2CCN(c4ccc(C(=O)N(C)C)cc4C)CC2)n3C)cn1 [Example 1s14, N,N,3-Trimethyl-4-[4-[[1-methyl-4-[6-(methylamino)-3-pyridyl]pyrrolo[2,3-b]pyridin-2-yl]methyl]piperazin-1-yl]benzamide]	37.2%
2580 nM	22.1 nM	CNc1ccc(-c2ccnc3c2cc(CN2CCC(c4ccc(C(=O)N(C)C)cc4F)CC2)n3C)cn1 [Example 1s30, 3-Fluoro-N,N-dimethyl-4-(1-((1-methyl-4-(6-(methylamino)pyridin-3-yl)-1H-pyrrolo[2,3-b]pyridin-2-yl)methyl)piperidin-4-yl)benzamide]	
